BigSolDB 2.1

CC(=O)c1cccc(O)c1
solubility (mole fraction)
Settings	in benzene	in ethanol	in ethyl acetate	in isobutanol	in isopropanol	in methanol	in methyl acetate	in n-butanol	in n-propanol	in water
289.15 K	0.00506	0.166	0.158	0.119	0.176	0.156	0.16	0.154	0.152	0.00073
292.15 K	0.00532	0.175	0.168	0.126	0.184	0.169	0.171	0.163	0.161	0.00078
295.15 K	0.00707	0.19	0.18	0.146	0.201	0.185	0.182	0.172	0.18	0.001
298.15 K	0.00848	0.209	0.191	0.166	0.22	0.203	0.197	0.189	0.199	0.00106
301.15 K	0.0122	0.225	0.199	0.184	0.236	0.22	0.209	0.203	0.211	0.00113
304.15 K	0.015	0.245	0.214	0.205	0.256	0.239	0.229	0.221	0.23	0.00154
307.15 K	0.0198	0.263	0.235	0.235	0.275	0.255	0.253	0.242	0.252	0.00172
310.15 K	0.0238	0.287	0.254	0.265	0.3	0.279	0.274	0.261	0.274	0.00199
313.15 K	0.0281	0.308	0.277	0.293	0.324	0.302	0.298	0.284	0.299	0.00245
316.15 K	0.0308	0.335	0.304	0.32	0.349	0.328	0.324	0.309	0.329	0.00291
319.15 K	0.037	0.361	0.333	0.348	0.372	0.349	0.346	0.335	0.36	0.00362
322.15 K	0.0453	0.391	0.364	0.38	0.401	0.383	0.376	0.368	0.395	0.00456
325.15 K	0.0614	0.42	0.384	0.421	0.431	0.409	0.407	0.402	0.425	0.00562
